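Each compound was tested at five concentrations against cells in 96-well plates for 48 hours. The concentration for 50% growth inhibition is given as GI50. TGI: total growth inhibition.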
Key:
Assay in all cases: NCI-60 cell line screen, 48 h
EKVX NSCLC = tested on: EKVX NSCLC
NCI-H23 lung = tested on: NCI-H23 lung
UO-31 renal = tested on: UO-31 renal
SK-OV-3 ovarian = tested on: SK-OV-3 ovarian
SK-MEL-2 melanoma = tested on: SK-MEL-2 melanoma
HS 578T breast = tested on: HS 578T breast
SF-268 CNS = tested on: SF-268 CNS
MDA-MB-435 = tested on: MDA-MB-435
HCT-116 colon = tested on: HCT-116 colon
SN12C renal = tested on: SN12C renal
MDA-MB-231 breast = tested on: MDA-MB-231 breast

For `C[N+](C)(C)c1ncnc2c1ncn2C1CCCO1` (stereo not given), the TGI (EKVX NSCLC) was > 100 µM, the TGI (NCI-H23 lung) was > 100 µM and the TGI (UO-31 renal) was > 100 µM. The TGI (SK-OV-3 ovarian) was > 100 µM, the TGI (SK-MEL-2 melanoma) was > 100 µM and the TGI (HS 578T breast) was > 100 µM. For the same compound, the TGI (SF-268 CNS) was > 100 µM, the TGI (MDA-MB-435) was > 100 µM and the TGI (HCT-116 colon) was > 100 µM. The TGI (SN12C renal) was > 100 µM.
`COc1ccc(C2=NOC(N)(c3ccc(OC)cc3)C2)cc1` (stereo not given) was tested, and the TGI (EKVX NSCLC) was > 100 µM, the TGI (NCI-H23 lung) was > 100 µM and the TGI (MDA-MB-231 breast) was > 100 µM. The TGI (UO-31 renal) was > 100 µM, the TGI (SK-OV-3 ovarian) was > 100 µM and the TGI (SK-MEL-2 melanoma) was > 100 µM. For the same compound, the TGI (HS 578T breast) was > 100 µM, the TGI (MDA-MB-435) was > 100 µM and the TGI (HCT-116 colon) was > 100 µM. For the same compound, the TGI (SN12C renal) was > 100 µM.
With `CCOC(=O)c1c[nH]c2ccc3c(c2c1=O)S(=O)(=O)CC3` (tested in a mixture with another compound) the TGI (EKVX NSCLC) was > 100 µM, the TGI (NCI-H23 lung) was > 100 µM and the TGI (UO-31 renal) was > 100 µM. For the same compound, the TGI (SK-OV-3 ovarian) was > 100 µM, the TGI (SK-MEL-2 melanoma) was > 100 µM and the TGI (SF-268 CNS) was > 100 µM. For the same compound, the TGI (HCT-116 colon) was > 100 µM and the TGI (SN12C renal) was > 100 µM.
For `CN(C)CCc1c2c(nc3ccccc13)C(=O)c1cccnc1C2=O`, the TGI (EKVX NSCLC) was 5.73 µM, the TGI (NCI-H23 lung) was 0.49 µM and the TGI (MDA-MB-231 breast) was 26.5 µM. It also gave a TGI (UO-31 renal) of 1.88 µM, a TGI (SK-OV-3 ovarian) of 2.52 µM and a TGI (SK-MEL-2 melanoma) of 4.21 µM. It also gave a TGI (HS 578T breast) of 4.15 µM, a TGI (SF-268 CNS) of 2.69 µM and a TGI (MDA-MB-435) of 1.15 µM. The TGI (HCT-116 colon) was 0.344 µM and the TGI (SN12C renal) was 1.92 µM.
In the case of `CCCn1c(=O)c(N2CCN(c3ccccc3)CC2)nc2sc3ccccc3c21`, the TGI (EKVX NSCLC) is reported as > 100 µM, the TGI (NCI-H23 lung) is reported as > 100 µM and the TGI (MDA-MB-231 breast) is reported as > 100 µM. The TGI (UO-31 renal) was > 100 µM, the TGI (SK-OV-3 ovarian) was > 100 µM and the TGI (SK-MEL-2 melanoma) was > 100 µM. The TGI (HS 578T breast) was > 100 µM, the TGI (SF-268 CNS) was > 100 µM and the TGI (MDA-MB-435) was > 100 µM. For the same compound, the TGI (HCT-116 colon) was > 100 µM and the TGI (SN12C renal) was > 100 µM.
In the case of `O=c1[nH]c(Nc2nc3ccccc3[nH]2)nc(O)c1Cc1ccccc1`, the TGI (EKVX NSCLC) is reported as > 100 µM, the TGI (NCI-H23 lung) is reported as > 100 µM and the TGI (MDA-MB-231 breast) is reported as > 100 µM. For the same compound, the TGI (UO-31 renal) was > 100 µM, the TGI (SK-MEL-2 melanoma) was > 100 µM and the TGI (HS 578T breast) was > 100 µM. The TGI (SF-268 CNS) was > 100 µM, the TGI (MDA-MB-435) was > 100 µM and the TGI (HCT-116 colon) was > 100 µM. For the same compound, the TGI (SN12C renal) was > 100 µM.
In the case of `COc1cc(O)c2c(=O)c(OC)c(-c3ccc(OC)c(OC)c3)oc2c1`, the GI50 (EKVX NSCLC) is reported as > 100 µM, the TGI (EKVX NSCLC) is reported as > 100 µM and the GI50 (MDA-MB-231 breast) is reported as > 100 µM. The TGI (MDA-MB-231 breast) was > 100 µM, the TGI (UO-31 renal) was > 100 µM and the TGI (SK-OV-3 ovarian) was > 100 µM. The GI50 (SF-268 CNS) was > 100 µM, the TGI (SF-268 CNS) was > 100 µM and the TGI (MDA-MB-435) was > 100 µM. For the same compound, the GI50 (HCT-116 colon) was 68.7 µM and the TGI (HCT-116 colon) was > 100 µM.
`CN1CCN(c2ccc3c(c2)NCC(=O)N3)CC1` was tested, and the TGI (EKVX NSCLC) was > 100 µM, the TGI (NCI-H23 lung) was > 100 µM and the TGI (MDA-MB-231 breast) was > 100 µM. The TGI (UO-31 renal) was > 100 µM, the TGI (SK-OV-3 ovarian) was > 100 µM and the TGI (SK-MEL-2 melanoma) was > 100 µM. The TGI (HS 578T breast) was > 100 µM, the TGI (SF-268 CNS) was > 100 µM and the TGI (MDA-MB-435) was > 100 µM. For the same compound, the TGI (HCT-116 colon) was > 100 µM.
With `CN1CCN(P2(=S)Oc3ccc4ccccc4c3-c3c(ccc4ccccc34)O2)CC1` the TGI (EKVX NSCLC) was > 77.8 µM, the TGI (NCI-H23 lung) was > 100 µM and the TGI (UO-31 renal) was 48 µM. The TGI (SK-OV-3 ovarian) was > 100 µM, the TGI (SK-MEL-2 melanoma) was 42.4 µM and the TGI (SF-268 CNS) was > 100 µM. For the same compound, the TGI (HCT-116 colon) was > 100 µM and the TGI (SN12C renal) was > 100 µM.
`Cn1c(=O)n2n(c1=O)C(C)(C13CC4CC(CC(C4)C1)C3)C13CC4CC(CC1C4)CC23` (stereo not given) was tested, and the TGI (EKVX NSCLC) was > 100 µM, the TGI (NCI-H23 lung) was > 100 µM and the TGI (MDA-MB-231 breast) was > 100 µM. For the same compound, the TGI (UO-31 renal) was > 100 µM, the TGI (SK-OV-3 ovarian) was > 100 µM and the TGI (SK-MEL-2 melanoma) was > 100 µM. The TGI (HS 578T breast) was > 100 µM, the TGI (SF-268 CNS) was > 100 µM and the TGI (MDA-MB-435) was > 100 µM. For the same compound, the TGI (SN12C renal) was > 100 µM.
In the case of `O=C(O)c1ccccc1N=Nc1c(O)c(S(=O)(=O)O)cc2cc(S(=O)(=O)O)ccc12`, the TGI (EKVX NSCLC) is reported as > 100 µM, the TGI (NCI-H23 lung) is reported as > 100 µM and the TGI (MDA-MB-231 breast) is reported as > 100 µM. For the same compound, the TGI (UO-31 renal) was > 100 µM, the TGI (SK-OV-3 ovarian) was > 100 µM and the TGI (SK-MEL-2 melanoma) was > 100 µM. The TGI (HS 578T breast) was > 100 µM, the TGI (SF-268 CNS) was > 100 µM and the TGI (MDA-MB-435) was > 100 µM. For the same compound, the TGI (HCT-116 colon) was > 100 µM and the TGI (SN12C renal) was > 100 µM.
